Measurements reported in publication PMC7156458, “Synthetic biology based construction of biological activity-related library of fungal decalin-containing diterpenoid pyrones” (Nature Communications, 2020).
Where two headings read alike, the source gives them in different places.

Columns and labels:
[1] = test system: MCF-7 cells; experiment: cell cytotoxic effects against MCF-7 cells (72 h), A490; assay type: cell-based, human; conditions: MCF-7, 72 h; for viability at 0.1 µM / viability at 1 µM / viability at 10 µM: Homo sapiens, MCF7, 72 h, read-out: A490 (control =1) ave
Description: !" ' ' '! !" ' ' '! !" ' ' '!!" ' ' '!!" ' ' '!!" ' ' '!!" ' ' '!!" ' ' '! !" ' ' '! !" ' ' '! !" ' ' '! !"#$
( % ) * '! '' '# '+ '$ '( '%
! " # $ %& %% %' %( %) %! %"
!" ' ' '! !" ' ' '!!" ' ' '!!" ' ' '!!" ' ' '!!" ' ' '!!" ' ' '! !" ' ' '! !" ' ' '! !" ' ' '! !" ' ' '! […]
Supplementary Fig. 46. a, Cell cytotoxic effects of DDPs against MCF-7 cells (72 h).
dose dependent cytotoxic effects against MCF-7 cells were tested their inhibitory activity against mammosphere
formation. Compound in blue (16) was also performed mammosphere assay as negative control. Data represent
mean±s.d. from three independent replicate experiments. […]
Source data underlying Supplementary Figure 46a are provided in a Source Data file. […]

[2] = cytotoxicity in Drosophila l(2)mbn cells; assay type: cell-based; conditions: Drosophila, l(2)mbn cells (larval blood cell-derived)
Description: (§1) We screened the DDPs on the Drosophila assay system for cytotoxicity, inhibitory activity of innate immune signalling and insecticidal activity. The cytotoxicity of the DDPs was evaluated using two cell lines, embryonic macrophage-derived DL1 cells[58]–[60] and larval blood cell-derived l(2)mbn cells, and their IC50 values are listed in Supplementary Table 23.

[3] = test system: l(2)mbn cells; experiment: cytotoxicity in Drosophila l(2)mbn cells; assay type: cell-based; conditions: for Luminescence Raw1: replicate 1; for Luminescence Raw2: replicate 2; for % viability, viability 1: replicate 1, relative to DMSO 1%; for % viability, viability 2: replicate 2, relative to DMSO 1%; for IC50: cytotoxicity
Description: as §1

[4] = 0.1 µM (DMSO 0.002%), control 1.064
[5] = 1 µM (DMSO 0.02%), control 1.104
[6] = 10 µM (DMSO 0.2%), control 1.049
[7] = replicate 1, relative to DMSO 1%, read-out: % viability, viability 1
[8] = replicate 2, relative to DMSO 1%, read-out: % viability, viability 2
[9] = average of two replicates, read-out: IC50 Average
[10] = replicate 1, read-out: IC50 (1)
[11] = replicate 2, read-out: IC50 (2)
[12] = Drosophila melanogaster, average of two replicates, read-out: IC50 Average
[13] = Drosophila melanogaster, average±SEM, read-out: IC50
[14] = Drosophila melanogaster, replicate 1, read-out: IC50 (1)
[15] = Drosophila melanogaster, replicate 2, read-out: IC50 (2)

C=C1CCC2C(C)(CCC=C(C)C)C(O)CCC2(C)C1Cc1c(O)c(C)c(C)oc1=O (stereo not shown) [Compound 9, higginsianin B]
viability at 0.1 µM ([1]; 0.1 µM (DMSO 0.002%)): 53.1%
viability at 1 µM ([1]; 1 µM (DMSO 0.02%)): 95.5%
viability at 10 µM ([1]; 10 µM (DMSO 0.2%)): 27.3%
A490 ave [1, 4]: 0.565
A490 ave [1, 5]: 1.055
A490 ave [1, 6]: 0.286
viability at 0.04 µM [2, 7]: 90.8%
viability at 0.04 µM [2, 8]: 91.3%
viability at 0.2 µM [2, 7]: 92.2%
viability at 0.2 µM [2, 8]: 95.4%
viability at 1 µM [2, 7]: 85%
viability at 1 µM [2, 8]: 84.3%
viability at 20 µM [2, 8]: 3.01%
Luminescence Raw1 ([3]; 0.04 µM): 5700406
Luminescence Raw2 ([3]; 0.04 µM): 5730357
Luminescence Raw1 ([3]; 0.2 µM): 5787371
Luminescence Raw2 ([3]; 0.2 µM): 5991618
Luminescence Raw1 ([3]; 1 µM): 5334874
Luminescence Raw2 ([3]; 1 µM): 5292296
Luminescence Raw1 ([3]; 4 µM): 375575
% viability, viability 1 ([3]; 4 µM): 5.981%
Luminescence Raw2 ([3]; 4 µM): 295889
% viability, viability 2 ([3]; 4 µM): 4.712%
Luminescence Raw1 ([3]; 10 µM): 141567
% viability, viability 1 ([3]; 10 µM): 2.255%
Luminescence Raw2 ([3]; 10 µM): 144091
% viability, viability 2 ([3]; 10 µM): 2.295%
Luminescence Raw1 ([3]; 20 µM): 140485
% viability, viability 1 ([3]; 20 µM): 2.2373%
Luminescence Raw2 ([3]; 20 µM): 188801
IC50 [3, 9]: 1540 nM
IC50 ([3]; average±SEM, read-out: IC50): 1540 ± 10 nM
IC50 [3, 10]: 1540 nM
IC50 [3, 11]: 1540 nM

C=C1CC[C@H]2[C@]3(C)C[C@H](C=C(C)C)O[C@H]3CC[C@]2(C)[C@@H]1Cc1c(OC)oc(C)c(C)c1=O [Compound 24]
viability at 0.1 µM ([1]; 0.1 µM (DMSO 0.002%)): 64%
viability at 1 µM ([1]; 1 µM (DMSO 0.02%)): 76.3%
viability at 10 µM ([1]; 10 µM (DMSO 0.2%)): 12.6%
A490 ave [1, 4]: 0.680
A490 ave [1, 5]: 0.843
A490 ave [1, 6]: 0.132
viability at 0.04 µM [2, 7]: 135%
viability at 0.04 µM [2, 8]: 110%
viability at 0.2 µM [2, 7]: 137%
viability at 0.2 µM [2, 8]: 130%
viability at 1 µM [2, 7]: 130%
viability at 1 µM [2, 8]: 122%
viability at 4 µM [2, 7]: 10.4%
viability at 4 µM [2, 8]: 8.47%
viability at 10 µM [2, 7]: 6.42%
viability at 10 µM [2, 8]: 6.23%
viability at 20 µM [2, 7]: 6.64%
viability at 20 µM [2, 8]: 6.04%
Luminescence Raw1 ([3]; 0.04 µM): 3470038
Luminescence Raw2 ([3]; 0.04 µM): 2834452
Luminescence Raw1 ([3]; 0.2 µM): 3507915
Luminescence Raw2 ([3]; 0.2 µM): 3346307
Luminescence Raw1 ([3]; 1 µM): 3332960
Luminescence Raw2 ([3]; 1 µM): 3138530
Luminescence Raw1 ([3]; 4 µM): 267094
Luminescence Raw2 ([3]; 4 µM): 217335
Luminescence Raw1 ([3]; 10 µM): 164693
Luminescence Raw2 ([3]; 10 µM): 160006
Luminescence Raw1 ([3]; 20 µM): 170462
Luminescence Raw2 ([3]; 20 µM): 154958
IC50 [3, 12]: 3040 nM
IC50 [3, 13]: 3040 ± 160 nM
IC50 [3, 14]: 3200 nM
IC50 [3, 15]: 2880 nM

C=C1CCC2C(C)(CCC=C(C)C)C(O)CCC2(C)C1Cc1c(O)c(C)c(C)oc1=O (stereo not shown) [Compound 4]
Luminescence Raw1 ([3]; 0.04 µM): 5839335
% viability, viability 1 ([3]; 0.04 µM): 92.9944%
Luminescence Raw2 ([3]; 0.04 µM): 5201728
% viability, viability 2 ([3]; 0.04 µM): 82.8402%
Luminescence Raw1 ([3]; 0.2 µM): 5720253
% viability, viability 1 ([3]; 0.2 µM): 91.0979%
Luminescence Raw2 ([3]; 0.2 µM): 5444207
% viability, viability 2 ([3]; 0.2 µM): 86.7018%
Luminescence Raw1 ([3]; 1 µM): 5427969
% viability, viability 1 ([3]; 1 µM): 86.4432%
Luminescence Raw2 ([3]; 1 µM): 5886607
% viability, viability 2 ([3]; 1 µM): 93.7472%
Luminescence Raw1 ([3]; 4 µM): 5612720
% viability, viability 1 ([3]; 4 µM): 89.3854%
Luminescence Raw2 ([3]; 4 µM): 6637959
% viability, viability 2 ([3]; 4 µM): 105.713%
Luminescence Raw1 ([3]; 10 µM): 900951
% viability, viability 1 ([3]; 10 µM): 14.3481%
Luminescence Raw2 ([3]; 10 µM): 1318179
% viability, viability 2 ([3]; 10 µM): 20.9927%
Luminescence Raw1 ([3]; 20 µM): 296971
% viability, viability 1 ([3]; 20 µM): 4.729%
Luminescence Raw2 ([3]; 20 µM): 325456
% viability, viability 2 ([3]; 20 µM): 5.183%
IC50 [3, 9]: 6440 nM
IC50 ([3]; average±SEM, read-out: IC50): 6440 ± 940 nM
IC50 [3, 10]: 5500 nM
IC50 [3, 11]: 7390 nM

C=C1CC[C@@H]2[C@](C)(CC[C@H]3O[C@H](C=C(C)C)C[C@@]23C)[C@@H]1Cc1c(OC)oc(CO)c(C(=O)OC)c1=O [Compound 21]
viability at 0.1 µM ([1]; 0.1 µM (DMSO 0.002%)): 114%
viability at 1 µM ([1]; 1 µM (DMSO 0.02%)): 118%
viability at 10 µM ([1]; 10 µM (DMSO 0.2%)): 103%
A490 ave [1, 4]: 1.213
A490 ave [1, 5]: 1.298
A490 ave [1, 6]: 1.083
Luminescence Raw2 ([3]; 0.2 µM): 2750409
Luminescence Raw1 ([3]; 0.4 µM): 2719029
Luminescence Raw2 ([3]; 0.4 µM): 2813892
Luminescence Raw1 ([3]; 0.8 µM): 2929318
Luminescence Raw2 ([3]; 0.8 µM): 2922825
Luminescence Raw1 ([3]; 1 µM): 2523535
IC50 [3, 12]: 2660 nM
IC50 [3, 13]: 2660 ± 220 nM
IC50 [3, 14]: 2440 nM
IC50 [3, 15]: 2880 nM
